Assay results as given in the NIST ThermoML archive (doi:10.1016/j.fluid.2012.01.007).
± gives the expanded uncertainty stated by the source.

Assay: excess molar enthalpy (molar enthalpy of mixing); xn = mol fraction of the nth substance listed
Conditions: 101 kPa, Liquid, Flow calorimetry

## C1CCCCC1 [cyclohexane] + CCCCCO
298.15 K, x2 = 0
  excess molar enthalpy: 0 ± 0.001 kJ/mol
313.15 K, x2 = 0
  excess molar enthalpy: 0 ± 0.001 kJ/mol

## CCCCCO [pentan-1-ol] + Cc1ccccc1
298.15 K, x1 = 0.0511
  excess molar enthalpy: 0.539 ± 0.012 kJ/mol
298.15 K, x1 = 0.1004
  excess molar enthalpy: 0.76 ± 0.016 kJ/mol
298.15 K, x1 = 0.1497
  excess molar enthalpy: 0.884 ± 0.019 kJ/mol
298.15 K, x1 = 0.2012
  excess molar enthalpy: 0.973 ± 0.021 kJ/mol
298.15 K, x1 = 0.2507
  excess molar enthalpy: 1.02 ± 0.022 kJ/mol
298.15 K, x1 = 0.3003
  excess molar enthalpy: 1.05 ± 0.022 kJ/mol
298.15 K, x1 = 0.35
  excess molar enthalpy: 1.06 ± 0.023 kJ/mol
298.15 K, x1 = 0.4018
  excess molar enthalpy: 1.04 ± 0.022 kJ/mol
298.15 K, x1 = 0.4516
  excess molar enthalpy: 1.01 ± 0.022 kJ/mol
298.15 K, x1 = 0.5016
  excess molar enthalpy: 0.96 ± 0.021 kJ/mol
298.15 K, x1 = 0.5517
  excess molar enthalpy: 0.894 ± 0.019 kJ/mol
298.15 K, x1 = 0.6018
  excess molar enthalpy: 0.816 ± 0.018 kJ/mol
298.15 K, x1 = 0.65
  excess molar enthalpy: 0.728 ± 0.016 kJ/mol
298.15 K, x1 = 0.7003
  excess molar enthalpy: 0.632 ± 0.014 kJ/mol
298.15 K, x1 = 0.7507
  excess molar enthalpy: 0.529 ± 0.011 kJ/mol
298.15 K, x1 = 0.8012
  excess molar enthalpy: 0.415 ± 0.0091 kJ/mol
298.15 K, x1 = 0.8497
  excess molar enthalpy: 0.312 ± 0.0069 kJ/mol
298.15 K, x1 = 0.9004
  excess molar enthalpy: 0.203 ± 0.0046 kJ/mol
298.15 K, x1 = 0.9491
  excess molar enthalpy: 0.102 ± 0.0025 kJ/mol
298.15 K, x1 = 1
  excess molar enthalpy: 0 ± 0.001 kJ/mol
313.15 K, x1 = 0.0511
  excess molar enthalpy: 0.596 ± 0.013 kJ/mol
313.15 K, x1 = 0.1004
  excess molar enthalpy: 0.884 ± 0.019 kJ/mol
313.15 K, x1 = 0.1498
  excess molar enthalpy: 1.05 ± 0.023 kJ/mol
313.15 K, x1 = 0.2013
  excess molar enthalpy: 1.17 ± 0.025 kJ/mol
313.15 K, x1 = 0.2508
  excess molar enthalpy: 1.23 ± 0.026 kJ/mol
313.15 K, x1 = 0.3003
  excess molar enthalpy: 1.25 ± 0.027 kJ/mol
313.15 K, x1 = 0.35
  excess molar enthalpy: 1.25 ± 0.027 kJ/mol
313.15 K, x1 = 0.3999
  excess molar enthalpy: 1.25 ± 0.027 kJ/mol
313.15 K, x1 = 0.4518
  excess molar enthalpy: 1.2 ± 0.026 kJ/mol
313.15 K, x1 = 0.5016
  excess molar enthalpy: 1.16 ± 0.025 kJ/mol
313.15 K, x1 = 0.5517
  excess molar enthalpy: 1.09 ± 0.023 kJ/mol
313.15 K, x1 = 0.6019
  excess molar enthalpy: 1 ± 0.021 kJ/mol
313.15 K, x1 = 0.6501
  excess molar enthalpy: 0.904 ± 0.019 kJ/mol
313.15 K, x1 = 0.7004
  excess molar enthalpy: 0.794 ± 0.017 kJ/mol
313.15 K, x1 = 0.7508
  excess molar enthalpy: 0.667 ± 0.014 kJ/mol
313.15 K, x1 = 0.8013
  excess molar enthalpy: 0.54 ± 0.012 kJ/mol
313.15 K, x1 = 0.8498
  excess molar enthalpy: 0.409 ± 0.009 kJ/mol
313.15 K, x1 = 0.9005
  excess molar enthalpy: 0.267 ± 0.006 kJ/mol
313.15 K, x1 = 0.9492
  excess molar enthalpy: 0.132 ± 0.0032 kJ/mol
313.15 K, x1 = 1
  excess molar enthalpy: 0 ± 0.001 kJ/mol

## Cc1ccccc1 [toluene] + CCCCCO
298.15 K, x2 = 0
  excess molar enthalpy: 0 ± 0.001 kJ/mol
313.15 K, x2 = 0
  excess molar enthalpy: 0 ± 0.001 kJ/mol

## CCCCCO [pentan-1-ol] + C1CCCCC1
298.15 K, x1 = 0.05
  excess molar enthalpy: 0.333 ± 0.0074 kJ/mol
298.15 K, x1 = 0.1001
  excess molar enthalpy: 0.44 ± 0.0096 kJ/mol
298.15 K, x1 = 0.1501
  excess molar enthalpy: 0.52 ± 0.011 kJ/mol
298.15 K, x1 = 0.2022
  excess molar enthalpy: 0.581 ± 0.013 kJ/mol
298.15 K, x1 = 0.2522
  excess molar enthalpy: 0.622 ± 0.013 kJ/mol
298.15 K, x1 = 0.3022
  excess molar enthalpy: 0.649 ± 0.014 kJ/mol
298.15 K, x1 = 0.3523
  excess molar enthalpy: 0.661 ± 0.014 kJ/mol
298.15 K, x1 = 0.4023
  excess molar enthalpy: 0.658 ± 0.014 kJ/mol
298.15 K, x1 = 0.4523
  excess molar enthalpy: 0.641 ± 0.014 kJ/mol
298.15 K, x1 = 0.5022
  excess molar enthalpy: 0.609 ± 0.013 kJ/mol
298.15 K, x1 = 0.5522
  excess molar enthalpy: 0.574 ± 0.012 kJ/mol
298.15 K, x1 = 0.6022
  excess molar enthalpy: 0.527 ± 0.011 kJ/mol
298.15 K, x1 = 0.6522
  excess molar enthalpy: 0.471 ± 0.01 kJ/mol
298.15 K, x1 = 0.7022
  excess molar enthalpy: 0.411 ± 0.009 kJ/mol
298.15 K, x1 = 0.7522
  excess molar enthalpy: 0.347 ± 0.0076 kJ/mol
298.15 K, x1 = 0.8021
  excess molar enthalpy: 0.272 ± 0.006 kJ/mol
298.15 K, x1 = 0.8501
  excess molar enthalpy: 0.206 ± 0.0047 kJ/mol
298.15 K, x1 = 0.9
  excess molar enthalpy: 0.138 ± 0.0032 kJ/mol
298.15 K, x1 = 0.95
  excess molar enthalpy: 0.0677 ± 0.0018 kJ/mol
298.15 K, x1 = 1
  excess molar enthalpy: 0 ± 0.001 kJ/mol
313.15 K, x1 = 0.05
  excess molar enthalpy: 0.449 ± 0.0099 kJ/mol
313.15 K, x1 = 0.1
  excess molar enthalpy: 0.582 ± 0.013 kJ/mol
313.15 K, x1 = 0.1501
  excess molar enthalpy: 0.673 ± 0.015 kJ/mol
313.15 K, x1 = 0.2021
  excess molar enthalpy: 0.739 ± 0.016 kJ/mol
313.15 K, x1 = 0.2522
  excess molar enthalpy: 0.785 ± 0.017 kJ/mol
313.15 K, x1 = 0.3022
  excess molar enthalpy: 0.809 ± 0.017 kJ/mol
313.15 K, x1 = 0.3521
  excess molar enthalpy: 0.819 ± 0.018 kJ/mol
313.15 K, x1 = 0.4022
  excess molar enthalpy: 0.81 ± 0.017 kJ/mol
313.15 K, x1 = 0.4522
  excess molar enthalpy: 0.783 ± 0.017 kJ/mol
313.15 K, x1 = 0.5022
  excess molar enthalpy: 0.746 ± 0.016 kJ/mol
313.15 K, x1 = 0.5522
  excess molar enthalpy: 0.71 ± 0.015 kJ/mol
313.15 K, x1 = 0.6022
  excess molar enthalpy: 0.634 ± 0.014 kJ/mol
313.15 K, x1 = 0.6519
  excess molar enthalpy: 0.583 ± 0.013 kJ/mol
313.15 K, x1 = 0.7019
  excess molar enthalpy: 0.494 ± 0.011 kJ/mol
313.15 K, x1 = 0.7521
  excess molar enthalpy: 0.412 ± 0.009 kJ/mol
313.15 K, x1 = 0.8021
  excess molar enthalpy: 0.335 ± 0.0074 kJ/mol
313.15 K, x1 = 0.8501
  excess molar enthalpy: 0.25 ± 0.0056 kJ/mol
313.15 K, x1 = 0.9
  excess molar enthalpy: 0.16 ± 0.0037 kJ/mol
313.15 K, x1 = 0.95
  excess molar enthalpy: 0.0798 ± 0.0021 kJ/mol
313.15 K, x1 = 1
  excess molar enthalpy: 0 ± 0.001 kJ/mol
